Data taken from patent publication US20240102016A1, “APPLICATION OF VEGFR GENE EXPRESSION INHIBITOR IN PREPARING PREPARATION OR AS PREPARATION FOR TREATING PSORIASIS” (priority 2022, published 2024).

Key:
Format in all cases: in vivo
[1] = system: IMQ-induced psoriatic mice; test: H&E staining of skin sections and PASI scores in IMQ-induced psoriatic mice; details: skin smeared with SU5205, 10 kg/kg/d, 150 μL, 4 h before IMQ cream; compared with the IMQ-induced mice
From the text: (§1) In the embodiment of the disclosure, psoriatic mice coated with VEGFR inhibitors are constructed as follows: dissolving the VEGFR inhibitor SU5205 in dimethyl sulfoxide (DMSO) solution to prepare stock solution, diluting the stock solution with cyclodextrin, and coating the stock solution with a concentration of […] (referred to a daily dosage per kilogram of body weight of the psoriatic mice) on the psoriatic mice. 7-8-week wild-type mice are taken with back hair shaved and an exposed skin area of 2 cm×2 cm. 150 μL of the VEGFR inhibitor solution is coated on the skin surface. The normal control mice are coated with control reagent (with 150 μL of DMSO and cyclodextrin). The psoriatic mice and the normal control mice are respectively coated with Imiquimod (IMQ) cream or control reagent VAS on the exposed skin in 4 h later of the above operation.
(§2) In the embodiment of the disclosure, the psoriatic mice subcutaneously injected with VEGF are constructed as follows: dissolving VEGF165 protein in DMSO solution to prepare stock solution, diluting the stock solution with cyclodextrin, and smearing the mice with the stock solution with a concentration of […]. 7-8-week wild-type mice are taken with back hair shaved and an exposed skin area of 2 cm×2 cm. 100 μL of the VEGF165 solution is injected subcutaneously the skin surface of the mice. […]

[2] = system: RASGRP1+T cells and IL-17A+T cells; test: Flow cytometry of RASGRP1+T cells and IL-17A+T cells in skin tissues of psoriatic mice; details: skin smeared with SU5205
From the text: as §1, §2

[3] = system: RASGRP1 downstream pathway; test: Western blot of RASGRP1 downstream pathway proteins in skin tissues of psoriatic mice; details: skin smeared with SU5205; compared with the IMQ-induced mice
From the text: as §1
In the embodiment of the disclosure, the psoriatic mice subcutaneously injected with VEGF are constructed as follows: dissolving VEGF165 protein in DMSO solution to prepare stock solution, diluting the stock solution with cyclodextrin, and smearing the mice with the stock solution with a concentration of […]. 7-8-week wild-type mice are taken with back hair shaved and an exposed skin area of 2 cm×2 cm. 100 μL of the VEGF165 solution is injected subcutaneously the skin surface of the mice. The normal control mice are injected with control reagent subcutaneously (with 100 μL of DMSO and cyclodextrin). The psoriatic mice subcutaneously injected with VEGF165, and the normal control mice are respectively smeared IMQ cream or control reagent VAS on the exposed skin in 4 h later of the injections.

O=C1Nc2ccccc2/C1=C/c1ccc(F)cc1 [SU5205]
psoriasis phenotypes (dorsal skin thickness, erythema, scaling; H&E staining and PASI scores) [1]: significantly reduced | IL-17A+T cells in skin tissues [2]: decrease significantly | Rasgrp1+T cells in skin tissues [2]: decrease significantly | active protein level of IL-1β in skin tissues [3]: significantly lower | active protein level of NF-κB in skin tissues [3]: significantly reduced | active protein level of phosphorylated AKT in skin tissues [3]: significantly reduced
